The values that follow come from US8592452B2, “Cyclic amine compound” (Takeda Pharmaceutical Company Limited, priority 2005, dated 2013).

Changes are numbered by the printed parent chain. Where two headings read alike, the source gives them in different places.

In test [1] the target is T1, AR having LNCaP-type mutation (Homo sapiens, UniProt P10275, T878A).
T1 sequence (P10275 1-920 T878A): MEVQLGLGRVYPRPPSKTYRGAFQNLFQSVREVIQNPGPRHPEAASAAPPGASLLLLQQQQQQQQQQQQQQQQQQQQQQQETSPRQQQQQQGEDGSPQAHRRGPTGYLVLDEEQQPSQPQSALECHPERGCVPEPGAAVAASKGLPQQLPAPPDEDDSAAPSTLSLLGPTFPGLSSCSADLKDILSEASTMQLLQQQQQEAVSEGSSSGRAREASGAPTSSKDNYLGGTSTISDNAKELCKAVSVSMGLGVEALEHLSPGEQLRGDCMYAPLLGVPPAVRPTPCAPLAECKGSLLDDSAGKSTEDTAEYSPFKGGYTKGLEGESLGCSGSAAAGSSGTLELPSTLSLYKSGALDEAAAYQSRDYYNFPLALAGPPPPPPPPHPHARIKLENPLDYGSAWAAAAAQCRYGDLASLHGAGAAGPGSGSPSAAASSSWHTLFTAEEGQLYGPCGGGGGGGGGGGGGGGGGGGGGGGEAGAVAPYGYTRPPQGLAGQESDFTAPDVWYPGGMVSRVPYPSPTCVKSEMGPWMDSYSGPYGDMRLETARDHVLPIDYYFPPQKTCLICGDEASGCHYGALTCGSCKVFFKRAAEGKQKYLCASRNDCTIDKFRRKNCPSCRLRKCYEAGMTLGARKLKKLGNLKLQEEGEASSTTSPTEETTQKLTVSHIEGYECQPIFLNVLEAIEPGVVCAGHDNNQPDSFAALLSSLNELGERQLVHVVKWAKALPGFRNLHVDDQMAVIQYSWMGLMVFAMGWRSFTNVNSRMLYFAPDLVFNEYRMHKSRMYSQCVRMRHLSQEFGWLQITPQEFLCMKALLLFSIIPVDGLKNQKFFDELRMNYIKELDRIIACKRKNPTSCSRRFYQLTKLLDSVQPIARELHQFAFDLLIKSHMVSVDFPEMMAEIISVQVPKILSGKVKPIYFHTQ
The test is described as follows: AR binding inhibitory test (LNCaP-type), radiolabeled mibolerone. As to conditions: 100 nM compound, 3 nM radiolabeled mibolerone, 4° C. 3 hr. How it is done:
(§1) To a solution containing a wild-type androgen receptor (AR) or AR having LNCaP-type mutation were added 3 nM radiolabeled mibolerone and 100 nM compound. After the solution was incubated at 4° C. for 3 hr, B (Bound)/F (Free) separation was performed by the dextran/charcoal method. The label count of B was measured, and the inhibitory rate of the compound was calculated.

Test [2] addresses T2, AR (wild-type) (Homo sapiens, UniProt P10275).
T2 construct: expressed in transfected cells; host or cells: Cos-7
T2 sequence (P10275 1-920): T1 sequence (P10275 1-920 T878A) with A878T
Kind of test: Reporter assay system using Cos7 cell, luciferase under MMTV-derived androgen responsive promoter. The test is classed as cell-based. The conditions noted are these: 100 nM compound, 24 hr, luciferase activity with 1 μM 5α-dihydrotestosterone as 100. How it is done: (§2) Cos-7 (5,000,000 cells) were sown in a flask (150 cm^2), and cultured in a culture medium (DMEM medium containing 10% Dextran Charcoal (DCC)-Fetal Bovine Serum (FBS) and 2 mM glutamine) for 24 hr. A vector DNA containing AR gene, and a vector DNA prepared by binging luciferase gene at the downstream of an MMTV (Mouse Mammary Tumor Virus)-derived androgen responsive promoter were co-transfected by the liposome method. After culture for 2 hr, the cells were harvested, 10,000 cells were plated on a 96 well plate and cultured for 3 hr, after which 1 μM of 5α-dihydrotestosterone or 100 nM of a compound was added. After culture for 24 hr, luciferase activity was determined. The induction rate by the compound was determined with the luciferase activity induced by addition of 1 μM of 5α-dihydrotestosterone as 100.

Test [3] has as its target T3, wild-type androgen receptor (AR) (Homo sapiens, UniProt P10275).
T3 sequence (P10275 1-920): T1 sequence (P10275 1-920 T878A) with A878T
Kind of test: AR binding inhibitory test (wild-type), radiolabeled mibolerone. As to conditions: 100 nM compound, 3 nM radiolabeled mibolerone, 4° C. 3 hr, read-out: Inhibitory rate (%) at 100 nM wild-type. How it is done:
as §1

Test [4] concerns the target T2, AR (wild-type). The test is described as follows: Reporter assay system using Cos7 cell, luciferase under androgen responsive promoter of two tandem PSA promoter regions. Format: cell-based. The conditions noted are these: 100 nM compound, 24 hr, luciferase activity with 1 μM 5α-dihydrotestosterone as 100. How it is done: as §2, with “an” for “an MMTV (Mouse Mammary Tumor Virus)-derived”, “promoter prepared by ligating two PSA promoter regions in tandem” for “promoter”, “added thereto.” for “added.”

Test [5] relates to human prostate cancer cell line LNCaP-FGC. Kind of test: PSA production test in human prostate cancer cell line. The test is classed as cell-based. As to conditions: 3 days, vehicle as 0, 350 nM testosterone as 100, test compound final concentration 0.1-1000 nM (concentration not given). Here is the method: The human prostate cancer cell line LNCaP-FGC was plated on a 96 well plate at 5,000 cells/100 μL/well. The next day, a test compound (final concentration 0.1-1000 nM), or a vehicle (control) or testosterone (final concentration 0.35-350 nM) was added thereto, and the culture supernatant was recovered 3 days after the drug addition. The concentration of PSA (Prostate Specific Antigen) produced in an androgen-dependent manner in the culture supernatant was measured by ELISA. The PSA production promotion rate by the test compound was calculated with vehicle addition group as 0 and 350 nM testosterone addition group as 100.

The mark [6] stands for this setting: Table 6, read-out: Inhibitory rate (%) at 100 nM LNcap-type.
Where [7] appears, read: Table 3, read-out: Inhibitory rate (%) at 100 nM LNCaP-type.

Consider `CC(C)[C@H]1[C@@H](O)CCN1c1ccc(C#N)c(C(F)(F)F)c1` [Compound 82, 4-[(2S,3S)-3-hydroxy-2-isopropylpyrrolidin-1-yl]-2-(trifluoromethyl)benzonitrile], for which the inhibition at 0.1 µM in test [1] (setting [6]) amounted to 97%; in test [3] (Table 6), 98%. Moreover, in test [2], the “Induction rate (%) at 100 nM wild-type” value came out at 90%.
Consider `C[C@H]1[C@@H](C(C)(C)O)CCN1c1ccc(C#N)cc1C(F)(F)F` [Compound 80, 4-[(2S,3S)-3-(1-hydroxy-1-methylethyl)-2-methylpyrrolidin-1-yl]-3-(trifluoromethyl)benzonitrile], for which the inhibition at 0.1 µM in test [1] (setting [6]) was found to be 95%; in test [3] (Table 6), 97%. For the same compound, the “Induction rate (%) at 100 nM wild-type” value in test [2] turned out to be 22%.
On to `C[C@H]1[C@@H](C(C)(C)O)CCN1c1ccc(C#N)c(Cl)c1F` [Compound 53, 2-chloro-3-fluoro-4-[(2S,3S)-3-(1-hydroxy-1-methylethyl)-2-methylpyrrolidin-1-yl]benzonitrile], for which the inhibition at 0.1 µM in test [1] (setting [6]) and in test [3] (Table 6) was 98% throughout. For the same compound, the “Induction rate (%) at 100 nM wild-type” value in test [2] is given as 33%.
With `C[C@H]1[C@@H](C(C)(C)O)CCN1c1ccc(C#N)c(Br)c1` [Compound 71, 2-bromo-4-[(2S,3S)-3-(1-hydroxy-1-methylethyl)-2-methylpyrrolidin-1-yl]benzonitrile], the inhibition at 0.1 µM in test [1] (setting [6]) came out at 97%; in test [3] (Table 6), 99%. Moreover, the “Induction rate (%) at 100 nM wild-type” value in test [2] stood at 31%.
With `C[C@H]1[C@@H](C(C)(C)O)CCN1c1ccc(C#N)c(Cl)c1Cl` [Compound 75, 2,3-dichloro-4-[(2S,3S)-3-(1-hydroxy-1-methylethyl)-2-methylpyrrolidin-1-yl]benzonitrile], the inhibition at 0.1 µM in test [1] (setting [6]) and in test [3] (Table 6) was 99% each time. Further, in test [2], the “Induction rate (%) at 100 nM wild-type” value was found to be 60%.
Consider `C[C@H]1[C@@H](C(C)(C)O)CCN1c1ccc(C#N)c(Cl)c1` [Compound 3, 2-chloro-4-[(2S,3S)-3-(1-hydroxy-1-methylethyl)-2-methylpyrrolidin-1-yl]benzonitrile], for which the inhibition at 0.1 µM in test [1] (setting [7]) worked out at 99%; in test [3] (Table 3), 98%. The “Induction rate (%) at 100 nM wild-type” value in test [4] is given as 57%. In test [5], the “PSA production promotion rate (%)” value stood at 81%.
Taken in the same sequence, the figures for `Cc1c(N2CC[C@H](C(C)(C)O)[C@@H]2C)ccc(C#N)c1Cl` [Compound 2, 2-chloro-4-[(2S,3S)-3-(1-hydroxy-1-methylethyl)-2-methylpyrrolidin-1-yl]-3-methylbenzonitrile] were 99%, 99%, 71% and 103%.
